# From US10118955B2, “C-terminal fragments of glucagon-like peptide-1 (GLP-1)” (The General Hospital Corporation, priority 2008, dated 2018)
# Ends that are not written are not given here.
# How the values were obtained:
# white adipocytes = conditions: Rodrigue-Way et al. 2007; cited from earlier work
# [1] = infusion in mice fed a very high fat diet: body weight, adipogenesis, food intake; assay type: in vivo; conditions: for weight gain: mice on VHFD (60% fat), continuous infusion 6.5 nanomoles/24 hrs/KgBW via osmopumps, 3 weeks
# Procedure: (§1) Mice were placed on VHFD or a LFD control diets at 6 weeks of age. Continuous infusion of GLP-1(28-36)amide, 6.5 nanomoles/24 hrs/KgBW via osmopumps was started at ten weeks of age and was continued for 3 weeks. Body weights were measured before and during these three weeks. Values are means and S.D.s of four mice in each group.
# Glucagon-like peptide-1 (GLP-1) is an insulinotropic peptide that stimulates glucose-dependent insulin secretion (Kieffer and Habener, Endocr Rev. 20(6):876-913 (1999)). […] The neutral endopeptidase, NEP 24.11 is proposed to be responsible for the degradation of GLP-1, much as the Dpp4 had been thought of as a peptide degrading enzyme for GLP-1 (Plamboeck et al., Diabetologia. 48(9):1882-90 (2005)). The carboxyl-terminal sequence of GLP-1, […]amide, GLP-1(28-36)amide, is a major peptide product of the cleavage of GLP-1 by NEP 24.11 (Hupe-Sodmann et al., Regul Pept. 58(3):149-56 (1995)). Therefore GLP-1(28-36)amide was infused into mice both fed a normal chow diet (LFD) and a very high fat diet (VHFD) for three weeks.
# [2] = system: phosphoACC (pACC, phospho-AcetylCoA carboxylase); experiment: liver ACC / phosphoACC protein expression after infusion; assay type: in vivo; conditions: mice fed a very high fat diet, infusion for three weeks
# Description: FIGS. 4A-4C are bar graphs showing regulation of PEPCK (4A) and ACC Protein Expression (both the phosphorylated (pACC) and unphosphorylated (ACC) forms (4B) in the presence and absence of the GLP-1(28-36) peptide, as well as the effect of the peptide on ratios of phosphorylated to unphosphorylated ACC (4C).
# This is important since ACC is highly regulated in the liver and is the key enzyme responsible for the synthesis of malonyl CoA from AcetylCoA and is a precursor of fatty acid synthesis and a potent inhibitor of CPT1 (carnitine palmitoyl transferase 1), the rate limiting enzyme in the transport of fatty acids into the beta oxidation machinery of mitochondria. This means that GLP-1(28-36) is exerting an inhibition on fatty acid oxidation (beta oxidation). The increase in SCD1 expression in response to infusion of GLP-1(28-36)amide is consistent with an increase in ACC activity since SCD1 is believed to inhibit AMP kinase which is an inhibitor of ACC. The mechanism currently proposed for the prevention of weight gain by GLP-1(28-36)amide in mice fed a very high fat diet involves a dual effect of GLP-1(28-36)amide on adipose tissue to enhance lipolysis and fat burning and inhibit lipogenesis. The increased fatty acid cycling and hypertriglyceridemia enhances hepatic fatty acid oxidation with consequent coupled enhanced gluconeogenesis driven by the enhanced fat burning. […]
# ACOX mRNA = experiment: liver mRNA levels by QPCR in mice infused with GLP-1(28-36)amide; assay type: in vivo; conditions: 28-36 infusion 3 weeks; for ACOX mRNA/QPCR Fold Difference compared to LFD: normalized to LFD mice as 1.0, parentheses = down-regulation
# Procedure: as §1
# (§2) An examination of gene expression profiles in the livers of GLP-1(28-36)amide treated mice was performed. Measurements of mRNA levels by quantitative polymerase chain reaction (QPCR) in livers of mice given a very high fat diet (VHFD) or a normal low fat diet (LFD) for four weeks followed by subcutaneous osmopump infusions of either vehicle or GLP-1(28-36)amide for three additional weeks. Data in Table 2, below, show changes in mRNA levels in LFD and VHFD groups of mice comparing vehicle versus GLP-1(28-36)amide where vehicle is set at a value of 1.0. […] GLP-1(28-36)amide appears to regulate PEPCK, PPARg, CD36, SCD1, SREBP1c, FASN, and PPARa.
# CD36 mRNA = experiment: as above; assay type: in vivo; conditions: 28-36 infusion 3 weeks; for CD36 mRNA/QPCR Fold Difference compared to LFD: normalized to LFD mice as 1.0, parentheses = down-regulation
# Procedure: as §1, §2
# PPARα mRNA = experiment: as above; assay type: in vivo; conditions: 28-36 infusion 3 weeks; for PPARα mRNA/QPCR Fold Difference compared to LFD: normalized to LFD mice as 1.0, parentheses = down-regulation
# Procedure: as §1, §2
# PGC1α mRNA = experiment: as above; assay type: in vivo; conditions: 28-36 infusion 3 weeks
# Procedure: as §1, §2
# [3] = system: PEPCK (phosphopyruvate carboxykinase) mRNA; experiment: as above; assay type: in vivo; conditions: 28-36 infusion 3 weeks; for PEPCK mRNA/QPCR Fold Difference compared to LFD: normalized to LFD mice as 1.0, parentheses = down-regulation
# Procedure: as §1, §2
# SREBP-1c mRNA = experiment: as above; assay type: in vivo; conditions: 28-36 infusion 3 weeks; for SREBP-1c mRNA/QPCR Fold Difference compared to LFD: normalized to LFD mice as 1.0, parentheses = down-regulation
# Procedure: as §1, §2
# SCD-1 mRNA = experiment: as above; assay type: in vivo
# Procedure: as §1, §2
# FASN mRNA = experiment: as above; assay type: in vivo; conditions: 28-36 infusion 3 weeks
# Procedure: as §1, §2
# CPT1 mRNA = experiment: as above; assay type: in vivo; conditions: 28-36 infusion 3 weeks; for CPT1 mRNA/QPCR Fold Difference compared to LFD: normalized to LFD mice as 1.0, parentheses = down-regulation
# Procedure: as §1, §2
# PPARγ mRNA = experiment: as above; assay type: in vivo; conditions: 28-36 infusion 3 weeks; for PPARγ mRNA/QPCR Fold Difference compared to LFD: normalized to LFD mice as 1.0, parentheses = down-regulation
# Procedure: as §1, §2
# isolated hepatocytes = experiment: hepatic gluconeogenesis in isolated hepatocytes (preliminary studies); assay type: cell-based; conditions: high (micromolar) concentrations
# 3T3-L1 adipocytes = experiment: lipolysis (glycerol release) in 3T3-L1 adipocytes; assay type: cell-based; conditions: 1-30 nM on a background of 10 nM isoproterenol, 60 min
# Procedure: Preliminary studies on the effect of GLP-1(9-36) on lipolysis were also performed in isolated mouse hepatocytes and 3T3-L1 adipocytes. Glycerol release into the culture medium was used as a measure of active lipolysis, and isoproterenol serves as a known stimulator of lipolysis. In these experiments GLP-1(9-36)amide was added dose-wise (1-30 nM) on a background of 10 nM isoproterenol. Incubations were for 60 min.
# [4] = system: hepatic glucose production (gluconeogenesis); conditions: Elahi et al. 2008; cited from earlier work
# [5] = Ban et al. 2008; cited from earlier work
# GLP-1 GPCR = GLP-1 GPCR (Homo sapiens, UniProt P43220); conditions: (nM); cited from earlier work
# [6] = high fat fed mice, infusion for three weeks
# [7] = LFD mice, vehicle set at 1.0, parentheses = down-regulation
# [8] = VHFD mice, VHFD vehicle set at 1.0, parentheses = down-regulation
# [9] = LFD mice, normalized to LFD mice as 1.0, parentheses = down-regulation
# GLP-1 GPCR, sequence (P43220 24-463): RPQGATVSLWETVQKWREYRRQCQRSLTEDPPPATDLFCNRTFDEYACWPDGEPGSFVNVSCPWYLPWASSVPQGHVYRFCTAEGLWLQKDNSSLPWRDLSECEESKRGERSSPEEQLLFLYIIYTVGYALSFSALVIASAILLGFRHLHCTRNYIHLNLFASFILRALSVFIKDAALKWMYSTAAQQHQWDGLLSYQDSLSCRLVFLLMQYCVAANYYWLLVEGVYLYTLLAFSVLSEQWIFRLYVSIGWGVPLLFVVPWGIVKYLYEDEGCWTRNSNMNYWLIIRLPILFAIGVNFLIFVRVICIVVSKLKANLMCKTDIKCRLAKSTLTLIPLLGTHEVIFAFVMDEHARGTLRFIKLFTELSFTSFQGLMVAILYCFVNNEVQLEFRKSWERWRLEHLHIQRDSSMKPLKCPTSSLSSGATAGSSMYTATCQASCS
compound,measurement,setting,value
"Cc1[nH]c2ccccc2c1C[C@@H](NC(=O)[C@@H](N)Cc1cnc[nH]1)C(=O)N[C@@H](C)C(=O)N[C@@H](Cc1c[nH]c2ccccc12)C(=O)N[C@H](Cc1ccccc1)C(=O)N[C@@H](CCCCN)C(N)=O [hexarelin, H-W(Me)-A-W-F-Kamide]",mitochondrial biogenesis and fat burning phenotype,white adipocytes,promote mitochondrial biogenesis and a fat burning phenotype
FIAWLVKGR-NH2 [28-36],adipogenesis,[1]; [6],completely prevented
same,food intake,[1]; [6],without observable differences
same,weight gain,[1]; listed as GLP-1(28-36),attenuates weight gain
same,weight gain,[1]; listed as GLP-1(28-36)amide,completely prevented
same,liver phosphoACC (pACC),[2],decrease
same,ACOX mRNA/QPCR Fold Difference compared to LFD,ACOX mRNA; LFD mice,1.4 fold
same,ACOX mRNA/QPCR Fold Difference compared to PEPTIDE (28-36),ACOX mRNA; [7],1.4 fold
same,ACOX mRNA/QPCR Fold Difference compared to PEPTIDE (28-36),ACOX mRNA; [8],1.04 fold
same,ACOX mRNA/QPCR Fold Difference compared to LFD,ACOX mRNA; VHFD mice,1.2 fold
same,CD36 mRNA/QPCR Fold Difference compared to LFD,CD36 mRNA; LFD mice,1.25 fold
same,CD36 mRNA/QPCR Fold Difference compared to PEPTIDE (28-36),CD36 mRNA; [7],1.25 fold
same,CD36 mRNA/QPCR Fold Difference compared to PEPTIDE (28-36),CD36 mRNA; [8],1.7 fold
same,CD36 mRNA/QPCR Fold Difference compared to LFD,CD36 mRNA; VHFD mice,1.7 fold
same,PPARα mRNA/QPCR Fold Difference compared to LFD,PPARα mRNA; LFD mice,1.2 fold
same,PPARα mRNA/QPCR Fold Difference compared to PEPTIDE (28-36),PPARα mRNA; [7],1.2 fold
same,PPARα mRNA/QPCR Fold Difference compared to PEPTIDE (28-36),PPARα mRNA; [8],1.35 fold
same,PPARα mRNA/QPCR Fold Difference compared to LFD,PPARα mRNA; VHFD mice,1.9 fold
same,PGC1α mRNA/QPCR Fold Difference compared to LFD,PGC1α mRNA; [9],1.35 fold
same,PGC1α mRNA/QPCR Fold Difference compared to PEPTIDE (28-36),PGC1α mRNA; [7],1.4 fold
same,PGC1α mRNA/QPCR Fold Difference compared to PEPTIDE (28-36),PGC1α mRNA; [8],1.2 fold
same,PEPCK mRNA/QPCR Fold Difference compared to LFD,[3]; LFD mice,1.6 fold
same,PEPCK mRNA/QPCR Fold Difference compared to PEPTIDE (28-36),[3]; [7],1.6 fold
same,PEPCK mRNA/QPCR Fold Difference compared to PEPTIDE (28-36),[3]; [8],1.5 fold
same,PEPCK mRNA/QPCR Fold Difference compared to LFD,[3]; VHFD mice,1.6 fold
same,SREBP-1c mRNA/QPCR Fold Difference compared to LFD,SREBP-1c mRNA; LFD mice,1 fold
same,SREBP-1c mRNA/QPCR Fold Difference compared to PEPTIDE (28-36),SREBP-1c mRNA; [7],1.1 fold
same,SREBP-1c mRNA/QPCR Fold Difference compared to PEPTIDE (28-36),SREBP-1c mRNA; [8],1.3 fold
same,SREBP-1c mRNA/QPCR Fold Difference compared to LFD,SREBP-1c mRNA; VHFD mice,1 fold
same,SCD1 expression,SCD-1 mRNA; in response to infusion of GLP-1(28-36)amide,increase
same,SCD-1 mRNA/QPCR Fold Difference compared to PEPTIDE (28-36),"SCD-1 mRNA; liver, VHFD mice, 28-36 infusion 3 weeks, VHFD vehicle set at 1.0, parentheses = down-regulation",3.05 fold
same,FASN mRNA/QPCR Fold Difference compared to LFD,FASN mRNA; [9],1 fold
same,FASN mRNA/QPCR Fold Difference compared to PEPTIDE (28-36),FASN mRNA; [7],1 fold
same,FASN mRNA/QPCR Fold Difference compared to PEPTIDE (28-36),FASN mRNA; [8],1.2 fold
same,CPT1 mRNA/QPCR Fold Difference compared to LFD,CPT1 mRNA; LFD mice,1.2 fold
same,CPT1 mRNA/QPCR Fold Difference compared to PEPTIDE (28-36),CPT1 mRNA; [7],1.21 fold
same,CPT1 mRNA/QPCR Fold Difference compared to PEPTIDE (28-36),CPT1 mRNA; [8],1.02 fold
same,CPT1 mRNA/QPCR Fold Difference compared to LFD,CPT1 mRNA; VHFD mice,1.74 fold
same,PPARγ mRNA/QPCR Fold Difference compared to LFD,PPARγ mRNA; LFD mice,1.54 fold
same,PPARγ mRNA/QPCR Fold Difference compared to PEPTIDE (28-36),PPARγ mRNA; [7],1.54 fold
same,PPARγ mRNA/QPCR Fold Difference compared to PEPTIDE (28-36),PPARγ mRNA; [8],1.4 fold
same,PPARγ mRNA/QPCR Fold Difference compared to LFD,PPARγ mRNA; VHFD mice,2.2 fold
GLP-1(9-36)amide,actions on hepatic gluconeogenesis,isolated hepatocytes,only weak actions
same,lipolysis (glycerol release into the culture medium),3T3-L1 adipocytes,stimulates lipolysis in 3T3-L1 adipocytes in a dose dependent manner
same,hepatic glucose production (gluconeogenesis),[4],inhibits
same,cardioprotective actions,[5],exerts cardioprotective actions
exendin-4,binding affinity to the GLP-1 GPCR,GLP-1 GPCR,high affinity
